According to patent US20180141939A1, “SOLID FORMS OF A BET INHIBITOR” (Gilead Sciences, Inc., priority 2016, published 2018):

Assays:
Type in all cases: physicochemical
[1] = Approximate solubility in single solvents
Description: (§1) In some embodiments, Compound I phosphate Form I, once formed, e.g., via the reactive crystallization methods disclosed herein, may be recrystallized from a variety of single solvents or binary solvent systems (e.g., solvent/anti-solvent systems) to promote desired physical characteristics such as crystal size. Recrystallization of Compound I phosphate Form I may occur with or without the addition of Compound I phosphate Form I seed material. The single solvents and binary solvent systems in which Compound I phosphate Form I may be recrystallized include, but are not limited to, MeOH, MeOH/EtOAc, DMA/MeCN, DMAc/toluene, DMF/MeCN, DMAc/MeCN, DMF/EtOAc, DMF/toluene, DMSO/MeCN, DMSO/MeCN, DMSO/IPA, NMP/MeCN, NMP/IPA, and NMP/EtOAc. A summary of the approximate solubility of Compound I phosphate Form I in various single solvents and binary solvent systems is provided in Tables I and II, respectively.

[2] = Solid-state chemical stability at various storage conditions
[3] = Kinetic aqueous solubility / solubility in water of salt and co-crystal forms; settings: aqueous
[4] = Approximate solubility in 1:1 (v/v) binary solvents
Description: as §1

[5] = Dissolution in 50 mM sodium acetate solution, pH 5; settings: pH of 5
Method: The dissolution of […] and […] was also evaluated in a 50 mM sodium acetate solution at a pH of 5 (FIG. 92).

[6] = Relative stability of solid forms (competitive slurries); settings: statement in words

In the case of `Cc1noc(C)c1-c1cc(C(O)(c2ccccn2)c2ccccn2)c2nc(C3CC3)[nH]c2c1` [Compound I phosphate Form I, (2-cyclopropyl-6-(3,5-dimethylisoxazol-4-yl)-1H-benzo[d]imidazol-4-yl)di(pyridin-2-yl)methanol], the “Approximate Solubility” value ([1]; 1,4-dioxane, 20-80° C.) is reported as “remained a slurry”, the “Approximate Solubility” value ([1]; 1-Propanol, 20-80° C.) is reported as “remained a slurry” and the “Approximate Solubility” value ([1]; 2-Butanol, 20-80° C.) is reported as “remained a slurry”. The “Approximate Solubility” value ([1]; 2-MeTHF, 20° C.) was 0.64 mg-solid/ml-solvent, the “Approximate Solubility” value ([1]; 2-Propanol/IPA, 20° C.) was 1.02 mg-solid/ml-solvent and the “Approximate Solubility” value ([1]; Acetic Acid, 20° C.) was about 190 mg-solid/ml-solvent. The “Approximate Solubility” value ([1]; Acetic Acid, 50° C.) was over 190 mg-solid/ml-solvent, the “Approximate Solubility” value ([1]; Acetic Acid, 80° C.) was >>190 mg-solid/ml-solvent and the “Approximate Solubility” value ([1]; Acetone, 20° C.) was 0.48 mg-solid/ml-solvent. For the same compound, the “Approximate Solubility” value ([1]; Acetonitrile, 20° C.) was 0.23 mg-solid/ml-solvent, the “Approximate Solubility” value ([1]; DCM (form changes), 20° C.) was 1.54 mg-solid/ml-solvent and the “Approximate Solubility” value ([1]; DMAc, 50° C.) was over 78 mg-solid/ml-solvent. The “Approximate Solubility” value ([1]; DMAc, 80° C.) was >>78 mg-solid/ml-solvent, the “Approximate Solubility” value ([1]; DMF, 50° C.) was under 70 mg-solid/ml-solvent and the “Approximate Solubility” value ([1]; DMF, 80° C.) was over 70 mg-solid/ml-solvent. For the same compound, the “Approximate Solubility” value ([1]; DMSO, 50° C.) was over 185 mg-solid/ml-solvent, the “Approximate Solubility” value ([1]; DMSO, 80° C.) was >>185 mg-solid/ml-solvent and the “Approximate Solubility” value ([1]; EtOH/water, 20° C.) was 22.7 mg-solid/ml-solvent. For the same compound, the “Approximate Solubility” value ([1]; Ethanol, 20° C.) was 2.46 mg-solid/ml-solvent, the “Approximate Solubility” value ([1]; Ethyl acetate, 20° C.) was 0.45 mg-solid/ml-solvent and the “Approximate Solubility” value ([1]; Heptane, 20° C.) was “<LOD”. For the same compound, the “Approximate Solubility” value ([1]; Heptane, cell spans the 50° C. and 80° C. columns) was “remained a slurry”, the “Approximate Solubility” value ([1]; Hexane, 20-80° C.) was “API adhered to vial walls” and the “Approximate Solubility” value ([1]; Isopropyl acetate, 20° C.) was 0.37 mg-solid/ml-solvent. The “Approximate Solubility” value ([1]; MEK, 20° C.) was 2.14 mg-solid/ml-solvent, the “Approximate Solubility” value ([1]; MIBK, 20° C.) was 0.31 mg-solid/ml-solvent and the “Approximate Solubility” value ([1]; MTBE, 20° C.) was 0.16 mg-solid/ml-solvent. For the same compound, the “Approximate Solubility” value ([1]; Methanol, 20° C.) was 12.56 mg-solid/ml-solvent, the “Approximate Solubility” value ([1]; NMP, 50° C.) was over 135 mg-solid/ml-solvent and the “Approximate Solubility” value ([1]; NMP, 80° C.) was >>135 mg-solid/ml-solvent. The “Approximate Solubility” value ([1]; THF, 20° C.) was 0.48 mg-solid/ml-solvent, the “Approximate Solubility” value ([1]; Toluene, 20° C.) was 1.34 mg-solid/ml-solvent and the “Approximate Solubility” value ([1]; Water, 20° C.) was 12.16 mg-solid/ml-solvent. For the same compound, the “% AN” value ([2]; 4° C., 1 month) was 97.1%, the “% LS” value ([2]; 4° C., 1 month) was 100.8% and the “% AN” value ([2]; 25° C./60% RH, 1 month) was 97.1%. The “% LS” value ([2]; 25° C./60% RH, 1 month) was 100.8%, the “% AN” value ([2]; 40° C./75% RH, 1 month) was 97.2% and the “% LS” value ([2]; 40° C./75% RH, 1 month) was 100.7%. For the same compound, the “% AN” value ([2]; 40° C./75% RH, open, 1 month) was 97.1%, the “% LS” value ([2]; 40° C./75% RH, open, 1 month) was 100.0% and the “% AN” value ([2]; 60° C., 1 month) was 97.1%. The “% LS” value ([2]; 60° C., 1 month) was 100.7%, the “% AN” value ([2]; Initial Time) was 97.1% and the chemical stability ([2]; up to about 40° C./75% RH for about 3 months) was “chemically stable”. The chemical stability ([2]; various conditions for about 1 month) was “chemically stable”, the “% AN” value ([2]; −20° C., 1 month) was 96.9% and the “% LS” value ([2]; −20° C., 1 month) was 100.9%. The kinetic aqueous solubility [3] was “about 3 mg/mL”, the “Approximate Solubility” value ([4]; DMAc/2-MeTHF 1:1 (v/v), 50° C.) was about 17.2 mg-solid/ml-solvent and the “Approximate Solubility” value ([4]; DMAc/Acetone 1:1 (v/v), 50° C.) was about 11.3 mg-solid/ml-solvent. For the same compound, the “Approximate Solubility” value ([4]; DMAc/EtOAc 1:1 (v/v), 80° C.) was about 10.8 mg-solid/ml-solvent, the “Approximate Solubility” value ([4]; DMAc/IPA 1:1 (v/v), 80° C.) was about 21 mg-solid/ml-solvent and the “Approximate Solubility” value ([4]; DMAc/IPAc 1:1 (v/v), 50° C.) was about 7.7 mg-solid/ml-solvent. The “Approximate Solubility” value ([4]; DMAc/MIBK 1:1 (v/v), 50° C.) was about 15 mg-solid/ml-solvent, the “Approximate Solubility” value ([4]; DMAc/MeCN 1:1 (v/v), 50° C.) was about 11.5 mg-solid/ml-solvent and the “Approximate Solubility” value ([4]; DMF/2-MeTHF 1:1 (v/v), 50° C.) was about 14.3 mg-solid/ml-solvent. For the same compound, the “Approximate Solubility” value ([4]; DMF/Acetone 1:1 (v/v), 50° C.) was about 19.5 mg-solid/ml-solvent, the “Approximate Solubility” value ([4]; DMF/EtOAc 1:1 (v/v), 50° C.) was about 10.8 mg-solid/ml-solvent and the “Approximate Solubility” value ([4]; DMF/IPA 1:1 (v/v), 50° C.) was about 14 mg-solid/ml-solvent. The “Approximate Solubility” value ([4]; DMF/IPAc 1:1 (v/v), 50° C.) was about 13.7 mg-solid/ml-solvent, the “Approximate Solubility” value ([4]; DMF/MIBK 1:1 (v/v), 80° C.) was about 6 mg-solid/ml-solvent and the “Approximate Solubility” value ([4]; DMF/MIBK 1:1 (v/v), cell spans the 20° C. and 50° C. columns) was “remained a thin slurry”. For the same compound, the “Approximate Solubility” value ([4]; DMF/MeCN 1:1 (v/v), 50° C.) was about 11 mg-solid/ml-solvent, the “Approximate Solubility” value ([4]; DMSO/2-MeTHF 1:1 (v/v), 20° C.) was over 51.5 mg-solid/ml-solvent and the “Approximate Solubility” value ([4]; DMSO/2-MeTHF 1:1 (v/v), 50° C.) was >>51.5 mg-solid/ml-solvent. For the same compound, the “Approximate Solubility” value ([4]; DMSO/2-MeTHF 1:1 (v/v), 80° C.) was >>>51.5 mg-solid/ml-solvent, the “Approximate Solubility” value ([4]; DMSO/Acetone 1:1 (v/v), 20° C.) was over 30 mg-solid/ml-solvent and the “Approximate Solubility” value ([4]; DMSO/Acetone 1:1 (v/v), 50° C.) was >>30 mg-solid/ml-solvent. For the same compound, the “Approximate Solubility” value ([4]; DMSO/Acetone 1:1 (v/v), 80° C.) was >>>30 mg-solid/ml-solvent, the “Approximate Solubility” value ([4]; DMSO/EtOAc 1:1 (v/v), 50° C.) was over 51.5 mg-solid/ml-solvent and the “Approximate Solubility” value ([4]; DMSO/EtOAc 1:1 (v/v), 80° C.) was >>51.5 mg-solid/ml-solvent. For the same compound, the “Approximate Solubility” value ([4]; DMSO/IPA 1:1 (v/v), 80° C.) was over 41 mg-solid/ml-solvent, the “Approximate Solubility” value ([4]; DMSO/IPAc 1:1 (v/v), 20° C.) was over 32 mg-solid/ml-solvent and the “Approximate Solubility” value ([4]; DMSO/IPAc 1:1 (v/v), 50° C.) was >>32 mg-solid/ml-solvent. The “Approximate Solubility” value ([4]; DMSO/IPAc 1:1 (v/v), 80° C.) was >>>32 mg-solid/ml-solvent, the “Approximate Solubility” value ([4]; DMSO/MIBK 1:1 (v/v), 50° C.) was over 50.5 mg-solid/ml-solvent and the “Approximate Solubility” value ([4]; DMSO/MIBK 1:1 (v/v), 80° C.) was >>50.5 mg-solid/ml-solvent. The “Approximate Solubility” value ([4]; DMSO/MeCN 1:1 (v/v), 50° C.) was over 33.5 mg-solid/ml-solvent, the “Approximate Solubility” value ([4]; DMSO/MeCN 1:1 (v/v), 80° C.) was >>33.5 mg-solid/ml-solvent and the “Approximate Solubility” value ([4]; HOAC/2-MeTHF 1:1 (v/v), 80° C.) was about 15.3 mg-solid/ml-solvent. The “Approximate Solubility” value ([4]; HOAC/Acetone 1:1 (v/v), 50° C.) was over 43 mg-solid/ml-solvent, the “Approximate Solubility” value ([4]; HOAC/Acetone 1:1 (v/v), 80° C.) was >>43 mg-solid/ml-solvent and the “Approximate Solubility” value ([4]; HOAC/EtOAc 1:1 (v/v), 50° C.) was about 13.8 mg-solid/ml-solvent. The “Approximate Solubility” value ([4]; HOAC/EtOAc 1:1 (v/v), 80° C.) was over 41.5 mg-solid/ml-solvent, the “Approximate Solubility” value ([4]; HOAC/IPA 1:1 (v/v), 80° C.) was over 44.5 mg-solid/ml-solvent and the “Approximate Solubility” value ([4]; HOAC/IPAc 1:1 (v/v), 50° C.) was about 8.3 mg-solid/ml-solvent. The “Approximate Solubility” value ([4]; HOAC/IPAc 1:1 (v/v), 80° C.) was over 8.3 mg-solid/ml-solvent, the “Approximate Solubility” value ([4]; HOAC/MIBK 1:1 (v/v), 50° C.) was about 22 mg-solid/ml-solvent and the “Approximate Solubility” value ([4]; HOAC/MIBK 1:1 (v/v), 80° C.) was over 22 mg-solid/ml-solvent. The “Approximate Solubility” value ([4]; HOAC/MeCN 1:1 (v/v), 20° C.) was over 30.5 mg-solid/ml-solvent, the “Approximate Solubility” value ([4]; HOAC/MeCN 1:1 (v/v), 50° C.) was >>30.5 mg-solid/ml-solvent and the “Approximate Solubility” value ([4]; HOAC/MeCN 1:1 (v/v), 80° C.) was >>>30.5 mg-solid/ml-solvent. The “Approximate Solubility” value ([4]; NMP/2-MeTHF 1:1 (v/v), 20° C.) was about 12 mg-solid/ml-solvent, the “Approximate Solubility” value ([4]; NMP/2-MeTHF 1:1 (v/v), 80° C.) was about 24 mg-solid/ml-solvent and the “Approximate Solubility” value ([4]; NMP/Acetone 1:1 (v/v), 50° C.) was over 24 mg-solid/ml-solvent. The “Approximate Solubility” value ([4]; NMP/Acetone 1:1 (v/v), 80° C.) was >>24 mg-solid/ml-solvent, the “Approximate Solubility” value ([4]; NMP/IPAc 1:1 (v/v), 50° C.) was about 15 mg-solid/ml-solvent and the “Approximate Solubility” value ([4]; NMP/IPAc 1:1 (v/v), 80° C.) was over 44 mg-solid/ml-solvent. The “Approximate Solubility” value ([4]; NMP/MeCN 1:1 (v/v), 80° C.) was over 27.5 mg-solid/ml-solvent, the dissolution [5] was “dissolve rapidly and maintain solubility for about 24 hours” and the “thermodynamic / physical stability of the solid form” value [6] was “most thermodynamically stable form of Compound I phosphate in most solvents”.
